Experimental data published in article PMC6710338, “Turning a Collagenesis-Inducing Peptide Into a Potent Antibacterial and Antibiofilm Agent Against Multidrug-Resistant Gram-Negative Bacteria” (Frontiers in Microbiology, 2019).
Peptide text beside a SMILES is read from it.

Assays:
P. aeruginosa ATCC 27853 = assay: MIC, broth microdilution (CLSI), ATCC reference strain; assay type: cell-based, Pseudomonas aeruginosa
Description: (§1) The minimum inhibitory concentration (MIC) of synthetic peptides was determined using the broth microdilution method in cation-adjusted Mueller-Hinton broth (MHB2 – Sigma-Aldrich, St. Louis, MO, United States), according to the recommendations of the Clinical and Laboratory Standards Institute ([CLSI, 2012]), against four reference strains, namely, P. aeruginosa ATCC 27853, E. coli ATCC 25922, S. aureus ATCC 25923 and Enterococcus faecalis ATCC 29212. MIC values of peptide 3.1-PP4 were also determined against MDR clinical isolates of P. aeruginosa (PA002, PA004, Pa3, Pa4), E. coli (Ec1, Ec2, EC001, EC002, EC003) and K. pneumoniae (KP004, KP007, KP010). The peptides were tested in the concentration range of 1–1024 μg/mL. The minimum bactericidal concentration (MBC) was determined as previously reported ([Bessa et al., 2018]). According to CLSI guidelines for antimicrobial susceptibility testing, MIC values were determined for all peptides against ATCC reference strains of two Gram-positive (S. aureus ATCC 25923 and E. faecalis ATCC 29212), and two Gram-negative (P. aeruginosa ATCC 27853 and E. coli ATCC 25922) bacterial species, and are shown in Table 2.

[1] = system: preformed biofilms of MDR K. pneumoniae isolates; assay: Effect on 24 h preformed biofilms (OD600 of planktonic phase); assay type: cell-based, Klebsiella pneumoniae; details: 20 × MIC, vs non-treated biofilm
Description: The efficacy of peptide 3.1-PP4 on 24 h preformed biofilms of PA002, PA004, KP004, KP007, and KP010 was also evaluated ([Gomes et al., 2014]). Briefly, biofilms were grown in TSB from a starting inoculum of 1 × 10^6 CFU/mL in 96-well microtiter plates. […] The optical density at 600 nm (OD600) was measured at time 0 and after incubation for 24 h at 37°C. The reduction in the biofilm proliferation was calculated in comparison to the respective non-treated biofilms. Two independent experiments were performed in triplicate.
In the case of control biofilms, the second 24 h growth period occurred in the absence of the peptide. Based on the apparent higher efficiency of peptide 3.1-PP4 to inhibit the formation of K. pneumoniae than P. aeruginosa biofilms, only two MDR isolates of the latter were included in this assay, whereas three MDR K. pneumoniae were tested. Optical density of the planktonic phase, as a measure of biofilm proliferation, was reduced in all peptide-treated biofilms, ranging from 3 to 21% reduction on P. aeruginosa isolates, and from 34 to 56% reduction on K. pneumoniae isolates (Table 4).

[2] = system: MDR isolates of P. aeruginosa, E. coli and K. pneumoniae; assay: Minimum bactericidal concentration (MBC); assay type: cell-based; details: all MDR isolates tested
Description: as §1, with “2018]).” for “2018]). According to CLSI guidelines for antimicrobial susceptibility testing, MIC values were determined for all peptides against ATCC reference strains of two Gram-positive (S. aureus ATCC 25923 and E. faecalis ATCC 29212), and two Gram-negative (P. aeruginosa ATCC 27853 and E. coli ATCC 25922) bacterial species, and are shown in Table 2.”
In view of the above results, peptide conjugate 3.1-PP4 was selected for further investigation of its activity against MDR isolates of three Gram-negative bacterial species, namely, P. aeruginosa (four isolates), E. coli (five isolates), and K. pneumoniae (four isolates), whose antimicrobial resistance patterns are provided in the Supplementary Table S1. […]

HFF-1 cells = assay: Collagen production, Picrosirius Red staining; assay type: cell-based, human; details: HFF-1, 72 h incubation, Sirius Red, absorbance 540 nm; concentrations representative of the MIC values; compared with C16-PP4
Description: Collagen production was assessed as described by [Remoué et al. (2013)]. Briefly, HFF-1 cells were seeded and incubated as described previously for the cytotoxicity assay. After the 72 h incubation with peptides, cells were washed with PBS and the Sirius Red dye in picric acid solution (Sigma-Aldrich, St. Louis, MO, United States) was applied to each well. Cells were incubated at 25°C for 1 h under orbital shaking. Dye was then rejected, and cells were washed twice with absolute ethanol (AGA). Once the wells were dry, 1 M aqueous NaOH (Sigma-Aldrich, St. Louis, MO, United States) was added, and absorbance read at 540 nm (Biotek PowerWave XS).
The CBP-AMP conjugates herein addressed include a collagenesis-inducing motif, the amino acid sequence KTTKS whose N-palmitoylated derivative is the well-known “Palmitoyl pentapeptide-4” (C16-PP4) that emerged in 2000 under the commercial name Matrixyl as an active ingredient in skin rejuvenating cosmetics. […] To this end, collagen produced by HFF-1 human fibroblasts was determined by the previously validated Picrosirius Red Staining Protocol ([Remoué et al., 2013]), taking C16-PP4 as reference CBP. […] Results are presented in Figure 3, and expressed as the ratio between collagen produced and the number of viable cells, as the test peptides had different cytotoxicity against the HFF-1 cell line. […]

`CC(C)C[C@H](NC(=O)[C@H](Cc1c[nH]c2ccccc12)NC(=O)[C@H](CCCCN)NC(=O)[C@H](CC(C)C)NC(=O)[C@H](CC(C)C)NC(=O)[C@H](CCCCN)NC(=O)[C@@H](N)CCCCN)C(=O)N[C@@H](CC(C)C)C(=O)N[C@@H](CCCCN)C(=O)N[C@@H](CC(C)C)C(=O)N[C@@H](CC(C)C)C(=O)N[C@@H](CCCCN)C(=O)N[C@H](C(=O)N[C@H](C(=O)N[C@@H](CCCCN)C(=O)N[C@@H](CO)C(N)=O)[C@@H](C)O)[C@@H](C)O` [Peptide 3.1-PP4] (H-KKLLKWLLKLLKTTKS-NH2; N-terminus assumed) gave an MIC (P. aeruginosa ATCC 27853; ATCC 27853) of 2.1 µM, an MIC (P. aeruginosa ATCC 27853; P. aeruginosa ATCC 27853, broth microdilution in MHB2, CLSI, range tested 1–1024 μg/mL) of 4 µg/mL and an MIC (P. aeruginosa ATCC 27853; P. aeruginosa ATCC 27853, broth microdilution in MHB2, CLSI, value in parentheses) of 2 µM. The “% reduction in biofilm proliferation upon treatment” value (shortened to “% reduction”) ([1]; isolate KP004, 24 h preformed biofilm) was 56%, the “% reduction” value ([1]; isolate KP007, 24 h preformed biofilm) was 34% and the “% reduction” value ([1]; isolate KP010, 24 h preformed biofilm) was 49%. For the same compound, the “minimal bactericidal concentrations (MBC)” value [2] was “match the MIC in all cases” and the “collagenesis-inducing behavior (collagen produced / number of viable cells)” value (HFF-1 cells) was “not statistically different from that of Matrixyl (C16-PP4)”.
